Test results as given in patent US20240245677A1, “SELECTED COMPOUNDS FOR TARGETED DEGRADATION OF BRD9” (C4 THERAPEUTICS, INC., priority 2021, published 2024).

Legend:
SW982 cells = assay: SW982 in vitro viability assay (CellTiter-Glo, 144 hours); assay type: cell-based, human
Experimental: SW982 cells were obtained from ATCC (Catalog No. HTB-93, Manassas, VA, USA) and maintained in DMEM medium (Catalog No. 12430112, ThermoFisher Scientific, Waltham, MA, USA) supplemented with 10% fetal bovine serum (FBS) (Catalog No. 16000-044, Gibco, Grand Island, NY, USA) at 37° C. in an atmosphere of 5% CO2 in air. The cells were routinely sub-cultured to maintain cell density between 3×10^5-1.5×10^6 cells/mL, not to exceed 20 passages. The cells growing in an exponential growth phase were harvested by centrifugation at 1000 rpm and resuspended in fresh growth media. An aliquot was diluted 2× with Trypan Blue solution 0.4% (Catalog No. 15250061, ThermoFisher Scientific, Waltham, MA, USA) and cell count was determined. Cell concentration was adjusted with growth media to 1.0×10^4 cells/mL.
Compound 1 was prepared by dissolving neat compound in DMSO (Catalog No. D8418, Sigma-Aldrich, Inc., St. Louis, MO, USA) to generate 10 mM stock solution and stored at −20° C. 10 mM DMSO stock solution was serially diluted (half log) in DMSO to generate 10-point dose series (10000, 3160, 1000, 316, 100, 31.6, 10, 3.16, 1, 0.32 μM) in acoustic ready 384-well low dead volume microplates (Catalog No. LP-0200, Beckman Coulter Life Sciences, Indianapolis, IN, USA). 50 nL of serially diluted compound solutions were dispensed using the Echo 550 Acoustic Liquid Handler Handler (Beckman Coulter Life Sciences, Indianapolis, IN, USA) in duplicate to each 384-well black TC-treated microplate (Catalog No. 3571, Corning, Glendale, CA, USA). 50 nL DMSO was transferred to all control wells.
50 μL SW982 cells suspended in growth media at 1.0×10^4 cells/mL (500 cells/well) were dispensed using a Multidrop Combi Reagent Dispenser (Catalog No. 5840300, ThermoFisher Scientific, Waltham, MA, USA) to each well of 384-well black TC-treated microplates containing duplicate concentration range of test compounds and DMSO controls. Plates were spun briefly at 1000 rpm and cells were incubated at 37° C., 5% CO2 for 144 hours. Final concentration of DMSO was 0.1% for all samples.
Additional cell plates (TO plates) were prepared by dispensing cells into a blank 384-well black TC-treated microplate to represent cytostatic controls and processed for viability detection immediately after cell dispensing.
SW982 cell viability was determined based on quantification of ATP using CellTiter-Glo® 2.0 luminescent assay kit (Catalog No. G9243, Promega, Madison, WI, USA), which signals the presence of metabolically active cells. On Day 0 (Time 0) and Day 6 (144 hours) 25 μL CellTiter-Glo® reagent was added to each well of cell plates except the wells in column 24 and the luminescence was measured after 4 hours incubation at room temperature using an EnVision® Multilabel Reader (Catalog No. 2104-0010, Perkin Elmer Inc., Dumfries, VA, USA). Column 24 (cells without CellTiter-Glo® addition) was used as plate background or positive control (P). Cytostatic control value (CT0) was computed from TO plate read using untreated cell signals (UT=0) and positive control signals (PT=0) as below.
Percent response of compound-treated samples at a time point T were calculated by normalizing the signal with P and DMSO treated negative (N) controls on the same microtiter plate and the CT0 control:
The Response % is thus 100% if the CellTiter-Glo® signal equals that of the DMSO treated controls (i.e., normal cell growth), 0% if it equals that of untreated cell at TO (i.e., cytostasis), and −100% if it equals the no CellTiter-Glo® reagent controls (i.e., complete cytotoxicity).
Curve fit and GI50 determination was performed by 4 parametric logistic fit analysis using software such as GraphPad Prism software (GraphPad Software, LLC, San Diego, CA, USA). The fit was performed through minimization of the root mean squared error between observed and calculated values of the four-parameter logistic equation using the simplex optimizer of the Apache Commons Math library. […]

IKZF1 = biological target: T1, IKZF1 (Homo sapiens, UniProt Q13422+Q96SW2); assay: IKZF1 HiBiT degradation assay in NCIH929.11 cells; assay type: cell-based
T1 construct: CRISPR-edited to endogenously express HiBiT tagged IKZF1; host or cells: NCIH929.11
T1 sequence (Q13422 whole entry): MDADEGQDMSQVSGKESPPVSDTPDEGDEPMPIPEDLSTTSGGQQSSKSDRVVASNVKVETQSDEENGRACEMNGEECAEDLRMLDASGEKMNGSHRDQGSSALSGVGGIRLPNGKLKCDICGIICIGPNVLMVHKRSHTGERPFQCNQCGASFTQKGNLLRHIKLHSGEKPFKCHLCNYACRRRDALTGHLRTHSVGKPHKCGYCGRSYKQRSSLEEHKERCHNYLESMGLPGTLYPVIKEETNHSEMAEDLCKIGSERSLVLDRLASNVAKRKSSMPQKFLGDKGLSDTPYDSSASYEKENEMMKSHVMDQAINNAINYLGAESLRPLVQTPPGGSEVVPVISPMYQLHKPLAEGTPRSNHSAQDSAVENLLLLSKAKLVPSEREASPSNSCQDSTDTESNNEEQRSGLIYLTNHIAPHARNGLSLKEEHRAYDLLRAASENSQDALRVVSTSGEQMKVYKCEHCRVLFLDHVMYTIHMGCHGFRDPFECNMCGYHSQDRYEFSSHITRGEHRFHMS
T1 sequence (Q96SW2 whole entry): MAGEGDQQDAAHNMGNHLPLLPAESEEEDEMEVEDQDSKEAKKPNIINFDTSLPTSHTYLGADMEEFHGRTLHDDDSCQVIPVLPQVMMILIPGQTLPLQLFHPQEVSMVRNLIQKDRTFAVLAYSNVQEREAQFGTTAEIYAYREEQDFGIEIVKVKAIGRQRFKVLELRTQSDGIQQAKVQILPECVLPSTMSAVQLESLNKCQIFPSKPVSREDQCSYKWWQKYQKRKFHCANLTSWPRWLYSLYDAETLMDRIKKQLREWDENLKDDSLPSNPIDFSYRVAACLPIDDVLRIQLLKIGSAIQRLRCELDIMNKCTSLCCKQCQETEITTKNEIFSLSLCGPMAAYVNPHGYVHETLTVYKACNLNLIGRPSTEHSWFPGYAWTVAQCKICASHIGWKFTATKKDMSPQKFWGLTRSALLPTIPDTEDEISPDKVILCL
T1 sequence (Q16531 2-1140 partner limits assumed): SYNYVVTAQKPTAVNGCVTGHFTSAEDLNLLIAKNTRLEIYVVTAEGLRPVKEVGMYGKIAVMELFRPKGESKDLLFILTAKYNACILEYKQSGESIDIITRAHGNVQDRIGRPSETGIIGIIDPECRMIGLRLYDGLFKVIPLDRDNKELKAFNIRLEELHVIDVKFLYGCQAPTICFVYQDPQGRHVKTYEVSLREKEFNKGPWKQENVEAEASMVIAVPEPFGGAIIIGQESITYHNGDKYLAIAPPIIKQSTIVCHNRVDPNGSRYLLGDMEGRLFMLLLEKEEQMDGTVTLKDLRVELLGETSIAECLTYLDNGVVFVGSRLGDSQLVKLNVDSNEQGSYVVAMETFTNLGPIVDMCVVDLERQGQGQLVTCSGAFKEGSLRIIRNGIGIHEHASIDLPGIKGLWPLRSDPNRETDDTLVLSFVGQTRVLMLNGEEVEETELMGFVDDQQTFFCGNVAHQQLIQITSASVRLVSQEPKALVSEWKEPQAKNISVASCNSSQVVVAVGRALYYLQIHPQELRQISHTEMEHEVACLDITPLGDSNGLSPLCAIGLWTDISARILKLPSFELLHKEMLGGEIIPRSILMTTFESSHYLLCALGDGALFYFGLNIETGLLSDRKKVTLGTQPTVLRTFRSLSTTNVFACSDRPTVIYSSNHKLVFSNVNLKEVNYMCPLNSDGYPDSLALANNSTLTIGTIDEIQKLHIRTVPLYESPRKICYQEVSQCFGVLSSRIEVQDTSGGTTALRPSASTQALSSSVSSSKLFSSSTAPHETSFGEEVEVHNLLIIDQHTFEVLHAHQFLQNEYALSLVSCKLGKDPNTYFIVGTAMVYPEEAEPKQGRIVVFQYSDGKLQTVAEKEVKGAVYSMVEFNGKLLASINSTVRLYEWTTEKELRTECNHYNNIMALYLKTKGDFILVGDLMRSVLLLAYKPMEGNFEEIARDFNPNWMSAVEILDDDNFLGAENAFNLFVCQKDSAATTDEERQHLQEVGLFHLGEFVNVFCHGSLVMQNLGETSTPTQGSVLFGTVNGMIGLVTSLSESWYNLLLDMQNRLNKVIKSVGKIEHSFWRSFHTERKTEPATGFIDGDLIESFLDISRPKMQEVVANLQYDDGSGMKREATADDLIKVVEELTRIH

SMILES: COc1cc(-c2cn(C)c(=O)c(C)c2C)cc(OC)c1CN1CC[C@H](N2CCN(c3ccc(N[C@H]4CCC(=O)NC4=O)cc3F)CC2)C(F)(F)C1 [Compound 1, (S)-3-((4-(4-((S)-1-(2,6-dimethoxy-4-(1,4,5-trimethyl-6-oxo-1,6-dihydropyridin-3-yl)benzyl)-3,3-difluoropiperidin-4-yl)piperazin-1-yl)-3-fluorophenyl)amino)-piperidine-2,6-dione]
- viability at 0.000318 µM (SW982 cells; Homo sapiens, SW982, 144 h, 0.318 nM, read-out: % SW982 Viability Relative to Vehicle Control at 144 hr, Mean): 96.2%
- viability at 0.00101 µM (SW982 cells; Homo sapiens, SW982, 144 h, 1.01 nM, read-out: % SW982 Viability Relative to Vehicle Control at 144 hr, Mean): 99.6%
- viability at 0.00317 µM (SW982 cells; Homo sapiens, SW982, 144 h, 3.17 nM, read-out: % SW982 Viability Relative to Vehicle Control at 144 hr, Mean): 97.2%
- viability at 0.01 µM (SW982 cells; Homo sapiens, SW982, 144 h, 10.0 nM, read-out: % SW982 Viability Relative to Vehicle Control at 144 hr, Mean): 101%
- viability at 0.0317 µM (SW982 cells; Homo sapiens, SW982, 144 h, 31.7 nM, read-out: % SW982 Viability Relative to Vehicle Control at 144 hr, Mean): 95.7%
- viability at 0.1 µM (SW982 cells; Homo sapiens, SW982, 144 h, 100 nM, read-out: % SW982 Viability Relative to Vehicle Control at 144 hr, Mean): 96.4%
- viability at 0.317 µM (SW982 cells; Homo sapiens, SW982, 144 h, 317 nM, read-out: % SW982 Viability Relative to Vehicle Control at 144 hr, Mean): 91.9%
- viability at 1 µM (SW982 cells; Homo sapiens, SW982, 144 h, 1000 nM, read-out: % SW982 Viability Relative to Vehicle Control at 144 hr, Mean): 88.6%
- viability at 3.161 µM (SW982 cells; Homo sapiens, SW982, 144 h, 3161 nM, read-out: % SW982 Viability Relative to Vehicle Control at 144 hr, Mean): 85.7%
- viability at 9.99 µM (SW982 cells; Homo sapiens, SW982, 144 h, 9990 nM, read-out: % SW982 Viability Relative to Vehicle Control at 144 hr, Mean): 84.2%
- GI50 (SW982 cells; Homo sapiens, SW982 cells, 144-hour treatment, read-out: Geometric Mean GI50): > 10 µM
- Emax (SW982 cells; Homo sapiens, SW982 cells, 144-hour treatment, read-out: Mean Emax (%) ± SD): 84.2 ± 4.6%
- growth inhibition at the highest concentration tested (SW982 cells; SW982 cells, 144-hour treatment): < 20%
- % IKZF1 Remaining Relative to Vehicle Control at 6 hr, Mean (IKZF1; 0.101 nM): 100.8%
- % IKZF1 Remaining Relative to Vehicle Control at 6 hr, Mean (IKZF1; 0.318 nM): 106.4%
- % IKZF1 Remaining Relative to Vehicle Control at 6 hr, Mean (IKZF1; 1.01 nM): 102.9%
- % IKZF1 Remaining Relative to Vehicle Control at 6 hr, Mean (IKZF1; 3.17 nM): 100.4%
- % IKZF1 Remaining Relative to Vehicle Control at 6 hr, Mean (IKZF1; 10.0 nM): 98.5%
- % IKZF1 Remaining Relative to Vehicle Control at 6 hr, Mean (IKZF1; 31.7 nM): 96.0%
- % IKZF1 Remaining Relative to Vehicle Control at 6 hr, Mean (IKZF1; 100 nM): 95.9%
- % IKZF1 Remaining Relative to Vehicle Control at 6 hr, Mean (IKZF1; 317 nM): 91.5%
- % IKZF1 Remaining Relative to Vehicle Control at 6 hr, Mean (IKZF1; 1000 nM): 93.3%
- % IKZF1 Remaining Relative to Vehicle Control at 6 hr, Mean (IKZF1; 3161 nM): 80.8%
- % IKZF1 Remaining Relative to Vehicle Control at 6 hr, Mean (IKZF1; 9990 nM): 74.2%
- degradation of IKZF1 (IKZF1; 10 μM, 6 hours): 25%
- Emax (IKZF1; IKZF1-HiBiT, NCIH929.11 cells, 6 hours, read-out: Mean Emax (%) ± SD): 74.2 ± 8.2%
- effect on degradation of IKZF1 (IKZF1; concentrations up to 1 μM, 6 hours): no significant effect
